According to patent US6472418B1, “Non-peptide NK1 receptors antagonists” (Warner-Lambert Company, priority 1998, dated 2002):

Target: T1, Human NK1 Receptor (Homo sapiens, UniProt P25103)
T1 construct: endogenous in cells; host or cells: Human lymphoma IM9 cells (whole cells)
Experiment: In Vitro Human NK1 Receptor Binding Assay ([125I]Bolton-Hunter substance P displacement, IM9 cells)
Details: Human lymphoma IM9 cells, [125I]Bolton-Hunter substance P (0.05-0.1 nM), 50 min at 21° C.; Table 1; read-out: NK1 binding IC50
Procedure, shortened: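 Radioligand displacement on whole IM9 human lymphoma cells (2.5×10^6 cells/mL) using [125I]Bolton-Hunter substance P (0.05-0.1 nM), 50 min at 21° C in Tris pH 7.4/MnCl2 buffer with protease inhibitors. Non-specific binding defined by […] [Sar9, Met(O2)11] substance P. Filtration, gamma counting, iterative curve fitting.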

T1 sequence (P25103 whole entry): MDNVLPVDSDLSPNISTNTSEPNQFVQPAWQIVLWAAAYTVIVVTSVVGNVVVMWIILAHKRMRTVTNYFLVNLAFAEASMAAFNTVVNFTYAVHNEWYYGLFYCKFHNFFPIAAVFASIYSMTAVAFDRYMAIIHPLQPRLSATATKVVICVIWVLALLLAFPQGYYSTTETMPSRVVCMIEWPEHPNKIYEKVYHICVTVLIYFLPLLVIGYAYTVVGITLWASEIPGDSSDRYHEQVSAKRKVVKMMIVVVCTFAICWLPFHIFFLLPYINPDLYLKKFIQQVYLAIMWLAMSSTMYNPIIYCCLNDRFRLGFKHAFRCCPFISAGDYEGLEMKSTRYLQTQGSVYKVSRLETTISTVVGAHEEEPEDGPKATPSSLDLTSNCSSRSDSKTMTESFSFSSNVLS

IC50 [nM]	SMILES
14	C[C@H](NC(=O)[C@@H](Cc1c[nH]c2ccccc12)NCc1ccc(Cl)s1)c1ccccc1 (relative stereo) [Example 12, 2-[(5-Chloro-thiophen-2-ylmethyl)-amino]-3-(1H-indol-3-yl)-N-(1-phenyl-ethyl)-propionamide, [R(R*,S*)]]
9.1	C[C@H](NC(=O)[C@@H](Cc1c[nH]c2ccccc12)NCc1cccc(OC(F)(F)F)c1)c1ccccc1 (relative stereo) [Example 16, 3-(1H-Indol-3-yl)-N-(1-phenyl-ethyl)-2-(3-trifluoromethoxy-benzylamino)-propionamide, [R-(R*,S*)]]
4.7	C[C@H](NC(=O)[C@@H](Cc1c[nH]c2ccccc12)NCc1cccc(C#N)c1)c1ccccc1 (relative stereo) [Example 14, 2-(3-Cyano-benzylamino)-3-(1H-indol-3-yl)-N-(1-phenyl-ethyl)-propionamide, [R-(R*,S*)]]

Same assay, conditions: Human lymphoma IM9 cells, [125I]Bolton-Hunter substance P; Table 3, array-synthesis products; read-out: IC50 (nM) hNK1

IC50 [nM]	SMILES
63	O=C(NCc1cccs1)C(Cc1c[nH]c2ccccc12)NCc1cc2ccccc2o1 (stereo not drawn) [Example 232, 2-[(Benzofuran-2-ylmethyl)-amino]-3-(1H-indol-3-yl)-N-thiophen-2-ylmethyl-propionamide]
33	Cc1cccc(CNC(=O)C(Cc2c[nH]c3ccccc23)NCc2cc3ccccc3o2)c1 (stereo not drawn) [Example 252, 2-[(Benzofuran-2-ylmethyl)-amino]-3-(1H-indol-3-yl)-N-(3-methyl-benzyl)-propionamide]
819	CC(NC(=O)C(Cc1c[nH]c2ccccc12)NCc1cc2ccccc2o1)c1ccc(N(C)C)cc1 (stereo not drawn) [Example 217, 2-[(Benzofuran-2-ylmethyl)-amino]-N-[1-(4-dimethylamino-phenyl)-ethyl]-3-(1H-indol-3-yl)-propionamide]
703	O=C(NC1CCCc2ccccc21)C(Cc1c[nH]c2ccccc12)NCc1cc2ccccc2o1 (stereo not drawn) [Example 194, 2-[(Benzofuran-2-ylmethyl)-amino]-3-(1H-indol-3-yl)-N-(1,2,3,4-tetrahydro-naphthalen-1-yl)-propionamide]
1260	O=C(NCCN1CCOCC1)C(Cc1c[nH]c2ccccc12)NCc1cc2ccccc2o1 (stereo not drawn) [Example 213, 2-[(Benzofuran-2-ylmethyl)-amino]-3-(1H-indol-3-yl)-N-(2-morpholin-4-yl-ethyl)-propionamide]
6	O=C(NCc1cccc(F)c1)C(Cc1c[nH]c2ccccc12)NCc1cc2ccccc2o1 (stereo not drawn) [Example 248, 2-[(Benzofuran-2-ylmethyl)-amino]-N-(3-fluoro-benzyl)-3-(1H-indol-3-yl)-propionamide]
21	CCC(NC(=O)C(Cc1c[nH]c2ccccc12)NCc1cc2ccccc2o1)c1ccccc1 (stereo not drawn) [Example 259, 2-[(Benzofuran-2-ylmethyl)-amino]-3-(1H-indol-3-yl)-N-(1-phenyl-propyl)-propionamide]

Same assay, conditions: Table 4; [125I]Bolton-Hunter substance P displacement, human IM9 cells; read-out: IC50 (nM) hNK1

IC50 [nM]	SMILES
169	CC(NC(=O)C(C)(Cc1c[nH]c2ccccc12)NCc1ccc2ccccc2c1)c1ccccc1 (stereo not drawn) [compound 309, 3-(1H-Indol-3-yl)-2-methyl-2-[(naphthalen-2-ylmethyl)-amino]-N-(1-phenyl-ethyl)-propionamide]
598	CC(NC(=O)C(C)(Cc1c[nH]c2ccccc12)NCc1ccsc1)c1ccccc1 (stereo not drawn) [compound 358, 3-(1H-Indol-3-yl)-2-methyl-N-(1-phenyl-ethyl)-2-[(thiophen-3-ylmethyl)-amino]-propionamide]

Same assay, conditions: Table 5; [125I]Bolton-Hunter substance P displacement, human IM9 cells; read-out: IC50 (nM) hNK1

IC50 [nM]	SMILES
> 10000	Cc1ccc(S(=O)(=O)Oc2cccc(CNC(Cc3c[nH]c4ccccc34)C(=O)NC(C)c3ccccc3)c2)cc1 (stereo not drawn) [compound 381]

Same assay, conditions: human NK1 receptor, IM9 cells, [125I]Bolton-Hunter substance P; read-out: IC50 (nM) hNK1

IC50 [nM]	SMILES
45	CC(NC(=O)C(C)(Cc1c[nH]c2ccccc12)NCc1cc2ccccc2o1)c1ccc(Cl)s1 (stereo not drawn) [compound 118, 2-[(Benzofuran-2-ylmethyl)-amino]-N-[1-(5-chloro-thiophen-2-yl)-ethyl]-3-(1H-indol-3-yl)-2-methyl-propionamide]
12	CC(Cc1c[nH]c2ccccc12)(NCc1cc2ccccc2o1)C(=O)NCc1cccc([N+](=O)[O-])c1 (stereo not drawn) [compound 112, 2-[(Benzofuran-2-ylmethyl)-amino]-3-(1H-indol-3-yl)-2-methyl-N-(3-nitro-benzyl)-propionamide]
> 10000	CC(Cc1c[nH]c2ccccc12)(NCc1cc2ccccc2o1)C(=O)NCCN1CCNCC1 (stereo not drawn) [compound 147, 2-[(Benzofuran-2-ylmethyl)-amino]-3-(1H-indol-3-yl)-2-methyl-N-(2-piperazin-1-yl-ethyl)-propionamide]
4480	CC(Cc1c[nH]c2ccccc12)(NCc1cc2ccccc2o1)C(=O)NCC(C)(C)c1ccccc1 (stereo not drawn) [compound 133, 2-[(Benzofuran-2-ylmethyl)-amino]-3-(1H-indol-3-yl)-2-methyl-N-(2-methyl-2-phenyl-propyl)-propionamide]
> 10000	CC(Cc1c[nH]c2ccccc12)(NCc1cc2ccccc2o1)C(=O)NCC(CC(=O)O)c1ccc(Cl)cc1 (stereo not drawn) [compound 84, 4-[2-[(Benzofuran-2-ylmethyl)-amino]-3-(1H-indol-3-yl)-2-methyl-propionylamino]-3-(4-chloro-phenyl)-butyric acid]
1210	CC(Cc1c[nH]c2ccccc12)(NCc1cc2ccccc2o1)C(=O)NCc1cnc2ccccc2c1 (stereo not drawn) [compound 151, 2-[(Benzofuran-2-ylmethyl)-amino]-3-(1H-indol-3-yl)-2-methyl-N-quinolin-3-ylmethyl-propionamide]
> 10000	CC(Cc1c[nH]c2ccccc12)(NCc1cc2ccccc2o1)C(=O)NCCN1CCNC1=O (stereo not drawn) [compound 86, 2-[(Benzofuran-2-ylmethyl)-amino]-3-(1H-indol-3-yl)-2-methyl-N-[2-(2-oxo-imidazolidin-1-yl)-ethyl]-propionamide]
269	CC(Cc1c[nH]c2ccccc12)(NCc1cc2ccccc2o1)C(=O)NCc1ccc(F)cc1F (stereo not drawn) [compound 181, 2-[(Benzofuran-2-ylmethyl)-amino]-N-(2,4-difluoro-benzyl)-3-(1H-indol-3-yl)-2-methyl-propionamide]
1960	COc1cccc(CNC(=O)C(C)(Cc2c[nH]c3ccccc23)NCc2cc3ccccc3o2)c1OC (stereo not drawn) [compound 142, 2-[(Benzofuran-2-ylmethyl)-amino]-N-(2,3-dimethoxy-benzyl)-3-(1H-indol-3-yl)-2-methyl-propionamide]
643	COc1cccc(CNC(=O)C(C)(Cc2c[nH]c3ccccc23)NCc2cc3ccccc3o2)c1 (stereo not drawn) [compound 55, 2-[(Benzofuran-2-ylmethyl)-amino]-3-(1H-indol-3-yl)-N-(3-methoxy-benzyl)-2-methyl-propionamide]
> 10000	CC(Cc1c[nH]c2ccccc12)(NCc1cc2ccccc2o1)C(=O)NCC1(c2ccco2)CCC1 (stereo not drawn) [compound 117, 2-[(Benzofuran-2-ylmethyl)-amino]-N-(1-furan-2-yl-cyclobutylmethyl)-3-(1H-indol-3-yl)-2-methyl-propionamide]
364	CC(NC(=O)C(C)(Cc1c[nH]c2ccccc12)NCc1cc2ccccc2o1)c1cccc(N)c1 (stereo not drawn) [compound 37, N-[1-(3-Amino-phenyl)-ethyl]-2-[(benzofuran-2-ylmethyl)-amino]-3-(1H-indol-3-yl)-2-methyl-propionamide]
100	CC(Cc1c[nH]c2ccccc12)(NCc1cc2ccccc2o1)C(=O)NCc1cccs1 (stereo not drawn) [compound 137, 2-[(Benzofuran-2-ylmethyl)-amino]-3-(1H-indol-3-yl)-2-methyl-N-thiophen-2-ylmethyl-propionamide]

SMILES	IC50 [nM]
CC(Cc1c[nH]c2ccccc12)(NCc1cc2ccccc2o1)C(=O)NC1NC(=O)c2ccccc21 (stereo not drawn) [compound 85]	2440
